Results on eleven compounds are retold here after PubChem BioAssay (NCI).

Molecules are shown by their SMILES.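 Test compounds were applied to cells in 96-well plates for 48 hours at 5 doses. GI50 marks 50% less growth. TGI: total growth inhibition.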 Bounds are passed on as bounds.

Assay in all cases: NCI anticancer screen, dose series, 48 h
Assay [1] has as its system SK-MEL-5 melanoma.
Assay [2] concerns HCT-116 colon.
Assay [3] has as its system SW-620 colon.
For assay [4], the system named is M14 melanoma.
Assay [5] deals with OVCAR-8 ovarian.
Assay [6] has as its system HOP-92 NSCLC.
Assay [7] concerns SNB-75 CNS.
The test system of assay [8] is UACC-257 melanoma.
Assay [9] concerns A498 renal.
Assay [10] has as its system MDA-MB-435.

On to `CNC1=C(C)C(=O)C(C)=C(C(C)(C)CC(=O)n2cc(F)c(=O)[nH]c2=O)C1=O`, for which the TGI in assay [1], in [2], in [3], in assay [4], in [5] and in assay [6] was greater than 100 µM throughout. For the same compound, the TGI in [7], in [8] and in assay [9] was greater than 100 µM each time.

As for `NNC(=O)CC(=O)Nc1ccccc1F`, the TGI in [1], in assay [2], in assay [3], in assay [4], in assay [5] and in assay [6] was greater than 100 µM in each case. The TGI in assay [7], in [8] and in assay [9] was greater than 100 µM in each case.

For the compound `C(=C1\CCC/C(=C/c2ccccc2)C1=NNc1ccccc1)/c1ccccc1`, the TGI in [1], in assay [2], in assay [3], in [4], in assay [5] and in [6] was greater than 100 µM throughout. Also, the TGI in [7], in assay [8] and in assay [9] was greater than 100 µM in each case.

Regarding `COc1cc2c(cc1OCCCCC(=O)Nc1ccc(-c3nc4ccccc4s3)cc1)N=C[C@@H]1CCCN1C2=O`, the GI50 is 1.76 µM in [1]; 1.86 µM in assay [2]; 1.76 µM in assay [10]; 1.64 µM in assay [3]; 1.55 µM in assay [4]; 1.57 µM in assay [5]. Further, the GI50 is 1.72 µM in [6], 1.73 µM in [8] and 1.87 µM in [9]. Besides, the TGI in assay [1] was 3.17 µM; in [2], 5.78 µM; in [10], 3.45 µM; in [3], 4.03 µM; in assay [4], 3.18 µM; in assay [5], 4.5 µM. The TGI was 4.63 µM in assay [6], 3.81 µM in [8] and 4.73 µM in [9].

For `Cc1cc[c-]cc1.Fc1c[c-]c(-c2ccccn2)c(F)c1.N#CCC[PH+](CCC#N)c1ccccc1.[Pt+2]`, the GI50 was 2.24 µM in assay [1]; 2.25 µM in assay [2]; 2.47 µM in assay [10]; 2.25 µM in assay [3]; 2.94 µM in assay [4]; 4 µM in assay [5]. The GI50 was 2.14 µM in assay [6], 1.9 µM in [8] and 2.18 µM in assay [9]. Moreover, the TGI in [1] was 5.36 µM; in [2], 5.91 µM; in [10], 6.75 µM; in assay [3], 5.35 µM; in assay [4], 10.9 µM; in [5], greater than 100 µM. The TGI in assay [6] stood at 8.05 µM; in assay [8], 4.41 µM; in [9] it was 8.5 µM.

As for `Cc1cn(C2C=CC(=O)C(C)O2)c(=O)[nH]c1=O` (stereo unspecified), the TGI came out at 28.1 µM in assay [1]; 24.6 µM in assay [2]; 28.8 µM in assay [3]; 29.7 µM in assay [4]; 35.5 µM in assay [5]; 29.5 µM in assay [6]. The TGI in assay [7] was 29.1 µM; in assay [8], 27.8 µM; in [9], greater than 100 µM.

As to `COc1ccc(C(=O)Nc2ncc(Cc3ccc(F)cc3)s2)cc1`, the GI50 was 0.0422 µM in assay [1]; 0.0519 µM in assay [2]; 0.0449 µM in assay [3]; 0.0378 µM in [4]; 0.135 µM in assay [5]; 1.45 µM in [6]. The GI50 was 0.036 µM in assay [7], 7.75 µM in assay [8] and 0.0204 µM in assay [9]. Besides, the TGI in [1] was 2.26 µM; in assay [2], greater than 100 µM; in assay [3], greater than 100 µM; in [4], greater than 100 µM; in assay [5] it was greater than 100 µM; in assay [6] it was 76 µM. Moreover, the figures for the TGI in assay [7], in assay [8] and in assay [9] were greater than 100 µM, greater than 100 µM and 0.0898 µM, respectively.

On to `N/C(=N\OC(=O)NC(Cl)=C(Cl)Cl)c1cc(C(F)(F)F)cc(C(F)(F)F)c1`, for which the TGI in assay [1] was 89.6 µM; in assay [2], 35.5 µM; in [10], 48.5 µM; in assay [3] it was 40.3 µM; in assay [4] it was 70.4 µM; in assay [5], 40.6 µM. Also, the TGI in assay [6] is 35.1 µM; in assay [8], 31.1 µM; in assay [9], 32.3 µM.

`O=C1c2cnccc2Cc2cccc3c2N1c1ccccc1S3`: the TGI in assay [1] came to 39 µM; in assay [2], 33.8 µM; in assay [3], 97.9 µM; in assay [4], 58.8 µM; in [6] it was 38.5 µM; in [7], 48.5 µM. Further, the TGI in assay [8] is 59 µM; in assay [9], 69.8 µM.

Regarding `Cc1cc(C)cc(Nc2nccc(-c3c(-c4ccc(F)cc4)ncn3C3CCNCC3)n2)c1`, the GI50 in assay [1] was 1.75 µM; in assay [2], 1.13 µM; in [10] it was 0.767 µM; in assay [3] it was 1.44 µM; in assay [4], 1.59 µM; in [5] it was 1.66 µM. Besides, the GI50 in assay [6] is 1.34 µM; in assay [7] it was 1.25 µM; in assay [8], 2.09 µM. For the same compound, the TGI turned out to be 3.31 µM in [1]; 2.36 µM in [2]; 2.09 µM in [10]; 3.07 µM in assay [3]; 3.18 µM in assay [4]; 5.01 µM in assay [5]. Further, the TGI was determined as 3.53 µM in assay [6], 5.24 µM in assay [7] and 4.17 µM in assay [8].

Take `O=C(O)c1cn(C2CC2)c2cc(N3CCN(S(=O)(=O)c4ccc(Cl)c(Cl)c4)CC3)c(F)cc2c1=O`: the GI50 is 2.04 µM in assay [1]; 3.86 µM in [2]; 2.97 µM in assay [10]; 4.05 µM in assay [3]; 4.06 µM in assay [4]; 3.33 µM in [5]. In addition, the GI50 in assay [6] was 1.54 µM; in [9], 2.91 µM. Also, the TGI was 4.42 µM in assay [1]; greater than 100 µM in [2]; greater than 100 µM in assay [10]; greater than 100 µM in assay [3]; greater than 100 µM in assay [4]; greater than 100 µM in [5]. Besides, the TGI is 5.71 µM in assay [6] and greater than 100 µM in [9].
